Tested on: enkephalinase
Test: enkephalinase inhibition, cleavage of N-suc-Ala-Ala-Phe-AMC by osteoblast-like cells, fluorescence
Type: biochemical, rat or mouse
Details: substrate N-succinyl-alanyl-alanylphenylalanyl-7-amido-4-methyl coumarin, 37° C., one hr
From the text: One such model is described by Spillantini et al., 12 Eur. J. Pharmacol 142-150 (1986), which has been modified by Applicants. (Applicants' modification consists of using osteoblast-like cells, rather than human serum, as the source of enkephalin-degrading enzymes.) This model measures inhibition of the enkephalin-degrading enzyme "enkephalinase". According to Applicants' modified method, the source of the enkephalin-degrading enzymes i s rat osteoblast-like cells or mouse osteoblast-like cells (MC3T3-E1 cells). The substrate used is N-succinyl-alanyl-alanyl-phenylalanyl-7-amido-4-methyl coumarin (hereafter N-suc-Ala-Ala-Phe-AMC), which is known to be cleaved at the Ala-Phe peptide bond by enkephalinase. […] Aminopeptidase, which is known to specifically cleave only Phe-AMC (at the Phe-AM(peptide bond), is then added to the sample. Cleavage by aminopeptidase yields the metabolites AMC (fluorescent) and Phe. Fluorescence is then measured and is directly proportional to the amount of substrate degraded by enkephalinase.
Specifically, a test sample (containing enzyme and a putative enkephalinase inhibitor) and a control sample (containing only enzyme) are equilibrated. A quantified amount of substrate is then added to both samples. […] Fluorescence of the samples is then measured, greater fluorescence corresponding to greater degradation of the substrate by enkephalinase. […]

O=C(O)CNC(=O)C(CS)Cc1ccccc1 (racemic) [DL-3-mercapto-2-benzyl-propanoylglycine]
inhibition of substrate degradation by enkephalinase (fluorescence vs control): significantly inhibited substrate degradation by enkephalinase

Source: patent US5403824A, “Methods for the treatment of osteoporosis” (The Procter & Gamble Company, priority 1993, dated 1995)
